Experimental data reported in ChEMBL document CHEMBL1139215, “Discovery of aminofurazan-azabenzimidazoles as inhibitors of Rho-kinase with high kinase selectivity and antihypertensive activity” (J Med Chem, 2007).
Calls of active or inactive are those of the source. The rule behind the calls is not given here.

Legend:
Homo sapiens [1] = species: Homo sapiens; assay: Selectivity for ROCK1 over RSK1
Homo sapiens [2] = species: Homo sapiens; assay: Selectivity for ROCK1 over GSK3-beta
Homo sapiens [3] = species: Homo sapiens; assay: Selectivity for ROCK1 over MSK1
Homo sapiens [4] = species: Homo sapiens; assay: Selectivity for ROCK1 over p70S6K
[5] = molecular target: Rho-associated protein kinase 1 (Homo sapiens, UniProt Q13464); assay: Inhibition of human ROCK1 in Sf9 cells; assay type: cell-based
Homo sapiens [6] = species: Homo sapiens; assay: Selectivity for ROCK1 over CDK2
Aorta = assay: Relaxation of phenylephrine contracted Sprague-Dawley rat aortic rings; assay type: functional, tissue-based
[7] = Cmax in Sprague-Dawley rat at 1 mg/kg, iv; assay type: ADME, organism-based; design: dose 1 mg/kg, route intravenous; conditions: in vivo
[8] = Cmax in Sprague-Dawley rat at 2.2 mg/kg, po; assay type: ADME, organism-based; design: dose 2.2 mg/kg, route oral; conditions: in vivo
[9] = Half life in Sprague-Dawley rat at 1 mg/kg, iv; assay type: ADME, organism-based; design: dose 1 mg/kg, route intravenous; conditions: in vivo
[10] = Clearance in Sprague-Dawley rat at 1 mg/kg, iv; assay type: ADME, organism-based; design: dose 1 mg/kg, route intravenous; conditions: in vivo
[11] = Volume of distribution in Sprague-Dawley rat at 1 mg/kg, iv; assay type: ADME, organism-based; design: dose 1 mg/kg, route intravenous; conditions: in vivo, read-out: Vdss
[12] = Oral bioavailability in Sprague-Dawley rat at 2.2 mg/kg, po; assay type: ADME, organism-based; conditions: in vivo
[13] = Half life in Sprague-Dawley rat at 1.2 mg/kg, iv; assay type: ADME, organism-based; design: dose 1.2 mg/kg, route intravenous; conditions: in vivo
[14] = Clearance in Sprague-Dawley rat at 1.2 mg/kg, iv; assay type: ADME, organism-based; design: dose 1.2 mg/kg, route intravenous; conditions: in vivo
[15] = Volume of distribution in Sprague-Dawley rat at 1.2 mg/kg, iv; assay type: ADME, organism-based; design: dose 1.2 mg/kg, route intravenous; conditions: in vivo, read-out: Vdss
[16] = Oral bioavailability in Sprague-Dawley rat at 3.7 mg/kg, po; assay type: ADME, organism-based; conditions: in vivo
[17] = Cmax in Sprague-Dawley rat at 3.7 mg/kg, po; assay type: ADME, organism-based; design: dose 3.7 mg/kg, route oral; conditions: in vivo
[18] = Cmax in Sprague-Dawley rat at 1.2 mg/kg, iv; assay type: ADME, organism-based; design: dose 1.2 mg/kg, route intravenous; conditions: in vivo
Rattus norvegicus [19] = assay: Reduction of mean arterial blood pressure in spontaneous hypertensive rat at 0.3 mg/kg, po; assay type: functional, organism-based; design: dose 0.3 mg/kg
Rattus norvegicus [20] = assay: Reduction of mean arterial blood pressure in spontaneous hypertensive rat at 1 mg/kg, po; assay type: functional, organism-based; design: dose 1 mg/kg
Rattus norvegicus [21] = assay: Reduction of mean arterial blood pressure in spontaneous hypertensive rat at 3 mg/kg, po; assay type: functional, organism-based; design: dose 3 mg/kg
[22] = Plasma concentration in spontaneously hypertensive rat at 3 mg/kg, po after 0.5 hrs; assay type: ADME, organism-based; design: dose 3 mg/kg, route oral
[23] = Plasma concentration in spontaneously hypertensive rat at 3 mg/kg, po after 1 hr; assay type: ADME, organism-based; design: dose 3 mg/kg, route oral
[24] = Plasma concentration in spontaneously hypertensive rat at 3 mg/kg, po after 2 hrs; assay type: ADME, organism-based; design: dose 3 mg/kg, route oral
[25] = Cmax in Sprague-Dawley rat at 1.6 mg/kg, iv; assay type: ADME, organism-based; design: dose 1.6 mg/kg, route intravenous; conditions: in vivo
[26] = Cmax in Sprague-Dawley rat at 3.3 mg/kg, po; assay type: ADME, organism-based; design: dose 3.3 mg/kg, route oral; conditions: in vivo
[27] = Half life in Sprague-Dawley rat at 1.6 mg/kg, iv; assay type: ADME, organism-based; design: dose 1.6 mg/kg, route intravenous; conditions: in vivo
[28] = Clearance in Sprague-Dawley rat at 1.6 mg/kg, iv; assay type: ADME, organism-based; design: dose 1.6 mg/kg, route intravenous; conditions: in vivo
[29] = Volume of distribution in Sprague-Dawley rat at 1.6 mg/kg, iv; assay type: ADME, organism-based; design: dose 1.6 mg/kg, route intravenous; conditions: in vivo, read-out: Vdss
[30] = Oral bioavailability in Sprague-Dawley rat at 3.3 mg/kg, po; assay type: ADME, organism-based; conditions: in vivo
[31] = Plasma concentration in spontaneously hypertensive rat at 3 mg/kg, po after 4 hrs; assay type: ADME, organism-based; design: dose 3 mg/kg, route oral
[32] = Plasma concentration in spontaneously hypertensive rat at 3 mg/kg, po after 8 hrs; assay type: ADME, organism-based; design: dose 3 mg/kg, route oral
[33] = Cmax in Sprague-Dawley rat at 0.85 mg/kg, iv; assay type: ADME, organism-based; design: dose 0.85 mg/kg, route intravenous; conditions: in vivo
[34] = Cmax in Sprague-Dawley rat at 2 mg/kg, po; assay type: ADME, organism-based; design: dose 2 mg/kg, route oral; conditions: in vivo
[35] = Half life in Sprague-Dawley rat at 0.85 mg/kg, iv; assay type: ADME, organism-based; design: dose 0.85 mg/kg, route intravenous; conditions: in vivo
[36] = Clearance in Sprague-Dawley rat at 0.85 mg/kg, iv; assay type: ADME, organism-based; design: dose 0.85 mg/kg, route intravenous; conditions: in vivo
[37] = Volume of distribution in Sprague-Dawley rat at 0.85 mg/kg; assay type: ADME, organism-based; design: dose 0.85 mg/kg; conditions: in vivo, read-out: Vdss
[38] = Oral bioavailability in Sprague-Dawley rat at 2 mg/kg, po; assay type: ADME, organism-based; conditions: in vivo
[39] = Cmax in Sprague-Dawley rat at 2.1 mg/kg, iv; assay type: ADME, organism-based; design: dose 2.1 mg/kg, route intravenous; conditions: in vivo
[40] = Cmax in Sprague-Dawley rat at 2.1 mg/kg, po; assay type: ADME, organism-based; design: dose 2.1 mg/kg, route oral; conditions: in vivo
[41] = Half life in Sprague-Dawley rat at 2.1 mg/kg, iv; assay type: ADME, organism-based; design: dose 2.1 mg/kg, route intravenous; conditions: in vivo
[42] = Clearance in Sprague-Dawley rat at 2.1 mg/kg, iv; assay type: ADME, organism-based; design: dose 2.1 mg/kg, route intravenous; conditions: in vivo
[43] = Volume of distribution in Sprague-Dawley rat at 2.1 mg/kg, iv; assay type: ADME, organism-based; design: dose 2.1 mg/kg, route intravenous; conditions: in vivo, read-out: Vdss
[44] = Oral bioavailability in Sprague-Dawley rat at 2.1 mg/kg, po; assay type: ADME, organism-based; conditions: in vivo
[45] = Cmax in Sprague-Dawley rat at 1.1 mg/kg, iv; assay type: ADME, organism-based; design: dose 1.1 mg/kg, route intravenous; conditions: in vivo
[46] = Half life in Sprague-Dawley rat at 1.1 mg/kg, iv; assay type: ADME, organism-based; design: dose 1.1 mg/kg, route intravenous; conditions: in vivo
[47] = Clearance in Sprague-Dawley rat at 1.1 mg/kg, iv; assay type: ADME, organism-based; design: dose 1.1 mg/kg, route intravenous; conditions: in vivo
[48] = Volume of distribution in Sprague-Dawley rat at 1.1 mg/kg, iv; assay type: ADME, organism-based; design: dose 1.1 mg/kg, route intravenous; conditions: in vivo, read-out: Vdss
[49] = Cmax in Sprague-Dawley rat at 2.4 mg/kg, iv; assay type: ADME, organism-based; design: dose 2.4 mg/kg, route intravenous; conditions: in vivo
[50] = Half life in Sprague-Dawley rat at 2.4 mg/kg, iv; assay type: ADME, organism-based; design: dose 2.4 mg/kg, route intravenous; conditions: in vivo
[51] = Clearance in Sprague-Dawley rat at 2.4 mg/kg, iv; assay type: ADME, organism-based; design: dose 2.4 mg/kg, route intravenous; conditions: in vivo
[52] = Volume of distribution in Sprague-Dawley rat at 2.4 mg/kg, iv; assay type: ADME, organism-based; design: dose 2.4 mg/kg, route intravenous; conditions: in vivo, read-out: Vdss

Rho-associated protein kinase 1, sequence (Q13464 whole entry): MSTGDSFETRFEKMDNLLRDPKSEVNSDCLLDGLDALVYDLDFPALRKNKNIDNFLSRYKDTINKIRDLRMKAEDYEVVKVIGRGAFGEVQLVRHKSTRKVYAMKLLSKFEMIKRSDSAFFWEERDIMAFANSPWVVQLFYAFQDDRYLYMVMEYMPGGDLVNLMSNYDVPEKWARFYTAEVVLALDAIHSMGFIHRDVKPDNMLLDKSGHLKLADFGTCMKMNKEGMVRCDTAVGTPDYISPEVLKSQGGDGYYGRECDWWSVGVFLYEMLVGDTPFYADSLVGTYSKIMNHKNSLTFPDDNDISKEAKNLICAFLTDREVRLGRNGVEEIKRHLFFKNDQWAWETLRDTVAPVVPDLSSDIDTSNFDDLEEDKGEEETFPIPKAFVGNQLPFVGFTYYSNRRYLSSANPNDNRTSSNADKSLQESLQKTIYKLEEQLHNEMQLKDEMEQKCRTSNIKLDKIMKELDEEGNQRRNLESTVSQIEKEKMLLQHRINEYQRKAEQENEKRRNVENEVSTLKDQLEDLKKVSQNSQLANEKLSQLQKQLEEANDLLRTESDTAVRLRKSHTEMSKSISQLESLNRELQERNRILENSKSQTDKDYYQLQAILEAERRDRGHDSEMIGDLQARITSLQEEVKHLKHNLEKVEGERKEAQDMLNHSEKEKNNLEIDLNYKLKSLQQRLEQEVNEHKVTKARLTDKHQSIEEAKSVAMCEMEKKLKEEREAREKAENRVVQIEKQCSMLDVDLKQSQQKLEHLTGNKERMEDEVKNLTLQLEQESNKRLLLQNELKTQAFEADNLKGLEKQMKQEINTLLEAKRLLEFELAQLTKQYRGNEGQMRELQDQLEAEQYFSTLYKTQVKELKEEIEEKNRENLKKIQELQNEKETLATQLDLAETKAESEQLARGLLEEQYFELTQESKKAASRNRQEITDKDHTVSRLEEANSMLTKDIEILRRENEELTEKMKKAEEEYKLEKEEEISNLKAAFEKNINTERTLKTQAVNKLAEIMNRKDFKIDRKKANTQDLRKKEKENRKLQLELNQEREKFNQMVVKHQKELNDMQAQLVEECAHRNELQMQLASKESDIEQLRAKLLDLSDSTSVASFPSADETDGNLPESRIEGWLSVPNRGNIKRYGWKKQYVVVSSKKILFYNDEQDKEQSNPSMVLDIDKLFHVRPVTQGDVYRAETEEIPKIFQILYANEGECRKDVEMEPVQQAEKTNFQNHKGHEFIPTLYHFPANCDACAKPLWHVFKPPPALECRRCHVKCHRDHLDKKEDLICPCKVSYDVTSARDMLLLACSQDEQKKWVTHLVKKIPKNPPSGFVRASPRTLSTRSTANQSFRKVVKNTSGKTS

SMILES	Selectivity ratio (Homo sapiens [1])	Selectivity ratio (Homo sapiens [2])	Selectivity ratio (Homo sapiens [3])	Selectivity ratio (Homo sapiens [4])	IC50 [5]	Selectivity ratio (Homo sapiens [6])	IC50 (Aorta)	further results
CCn1c(-c2nonc2N)nc2cnc(Oc3cccc(S(C)(=O)=O)c3)cc21	2.7	150	3.9	0.7	33 nM	–	–	–
CCn1c(-c2nonc2N)nc2cnc(Oc3ccccc3)cc21	10	> 500	1.5	18	30 nM	> 130	–	–
CCn1c(-c2nonc2N)nc2cnc(Oc3cccc(NC(=O)c4ccc(CN(C)C)cc4)c3)cc21	> 80	–	> 52	> 3	≤ 1 nM	–	74 nM	Cmax [7]: 630 ng/mL; Cmax [8]: 160 ng/mL; half-life [9]: 114 min; clearance [10]: 30 mL/min/kg; Vd [11]: 2.4 L/kg; bioavailability [12]: 47%
CCn1c(-c2nonc2N)nc2cnc(Oc3cccc(NC(=O)c4ccc(CN)cc4)c3)cc21	> 70	–	> 70	> 17	≤ 1 nM	–	107 nM	Cmax [7]: 9900 ng/mL; Cmax [8]: 255 ng/mL; half-life [9]: 84 min; clearance [10]: 2.3 mL/min/kg; Vd [11]: 0.11 L/kg; bioavailability [12]: 4%
CCn1c(-c2nonc2N)nc2cnc(OC)cc21	18	250	2.3	15	4.4 nM	55	–	–
CCn1c(-c2nonc2N)nc2cnccc21	0.63	53	0.18	3.1	19 nM	22	–	–
CCn1c(-c2nonc2N)nc2cnc(Oc3cccc(NC(=O)c4ccccc4)c3)cc21	3.8	–	2.2	3	4 nM	–	106 nM	half-life [13]: 576 min; clearance [14]: 0.18 mL/min/kg; Vd [15]: 0.16 L/kg; bioavailability [16]: 35%; Cmax [17]: 6940 ng/mL; Cmax [18]: 11700 ng/mL
CCn1c(-c2nonc2N)nc2cnc(Oc3cccc(NC(=O)c4ccc(OCCN5CCOCC5)cc4)c3)cc21 [GSK-269962A]	–	–	–	–	–	–	35 nM	Activity (Rattus norvegicus [19]): Active; Activity (Rattus norvegicus [20]): Active; Activity (Rattus norvegicus [21]): Active; concentration at 0.5 h [22]: 280 ng/mL; concentration at 1 h [23]: 330 ng/mL; concentration at 2 h [24]: 290 ng/mL; Cmax [25]: 1270 ng/mL; Cmax [26]: 800 ng/mL; half-life [27]: 132 min; clearance [28]: 7.6 mL/min/kg; Vd [29]: 1.3 L/kg; bioavailability [30]: 78%; concentration at 4 h [31]: 150 ng/mL; concentration at 8 h [32]: 88 ng/mL
CCn1c(-c2nonc2N)nc2cnc(Oc3cccc(NC(=O)c4ccc(N(C)C)cc4)c3)cc21 [GSK-248233A]	45	–	13	7	2 nM	–	106 nM	Cmax [33]: 18600 ng/mL; Cmax [34]: 3620 ng/mL; half-life [35]: 516 min; clearance [36]: 0.14 mL/min/kg; Vd [37]: 0.09 L/kg; bioavailability [38]: 11%
CCn1c(-c2nonc2N)nc2cnc(Oc3cccc(NC(=O)c4ccc(N5CCOCC5)cc4)c3)cc21	> 60	–	> 26	> 10	≤ 1 nM	–	59 nM	Cmax [39]: 1500 ng/mL; Cmax [40]: 890 ng/mL; half-life [41]: 54 min; clearance [42]: 8.6 mL/min/kg; Vd [43]: 0.57 L/kg; bioavailability [44]: 23%
CCn1c(-c2nonc2N)nc2cnc(Oc3cccc(C(C)=O)c3)cc21	12	> 1000	12	6.2	13 nM	460	–	–
CCn1c(-c2nonc2N)nc2cnc(Oc3cccc(N)c3)cc21	8.9	300	9.4	13	18 nM	320	–	–
CCn1c(-c2nonc2N)nc2cnc(Oc3cccc(NC(C)=O)c3)cc21	18	> 1000	2.8	14	1.8 nM	> 1000	–	–
CCn1c(-c2nonc2N)nc2cnc(Oc3ccc(NC(C)=O)cc3)cc21	12	> 160	9.7	9.2	90 nM	110	–	–
CCn1c(-c2nonc2N)nc2cnc(Oc3cccc(NC(=O)c4ccc(CN5CCOCC5)cc4)c3)cc21	> 120	–	> 35	> 10	≤ 1 nM	–	102 nM	Cmax [45]: 1100 ng/mL; Cmax [8]: 684 ng/mL; half-life [46]: 84 min; clearance [47]: 10.7 mL/min/kg; Vd [48]: 1.1 L/kg; bioavailability [12]: 64%
CCn1c(-c2nonc2N)nc2cnc(Oc3cccc(NC(=O)c4ccc(OCCN(C)C)cc4)c3)cc21	> 80	–	> 65	> 3	≤ 1 nM	–	79 nM	Cmax [49]: 410 ng/mL; Cmax [26]: 410 ng/mL; half-life [50]: 126 min; clearance [51]: 121 mL/min/kg; Vd [52]: 8.9 L/kg; bioavailability [30]: 40%
